Results: patent US10487093B2, “Heterocyclic compounds, in particular 2-oxo-4,4,5,5,6,6,7,7-octahydrobenzoxazole derivatives, and their use as antibacterial compounds” (priority 2016, dated 2019)

Test system: Gram-negative and Gram-positive bacterial strains
Format: cell-based
Conditions: including those which are resistant to fluoroquinolone antibiotics and other antibiotics

Structure (SMILES)	activity against all strains of A. baumannii and E. coli tested (in words)
COc1ccc2ncc(=O)n(CCN[C@H]3CCC4C(C3)OC(=O)N4c3ccc4c(n3)NC(=O)CO4)c2n1 (stereo in doubt) [Compound 45, (3aS,6S,7aS)-6-[(2-{6-methoxy-3-oxo-3H,4H-pyrido[2,3-b]pyrazin-4-yl}ethyl)amino]-3-{3-oxo-2H,3H,4H-pyrido[3,2-b][1,4]oxazin-6-yl}-octahydro-1,3-benzoxazol-2-one]	excellent activity
COc1ccc2ccc(=O)n(CCN[C@H]3CC[C@H]4[C@@H](C3)OC(=O)N4c3ccc4c(n3)NC(=O)CO4)c2n1 [Compound 4, 1-(2-{[(3aS,6S,7aR)-2-oxo-3-{3-oxo-2H,3H,4H-pyrido[3,2-b][1,4]oxazin-6-yl}-octahydro-1,3-benzoxazol-6-yl]amino}ethyl)-7-methoxy-1,2-dihydro-1,8-naphthyridin-2-one]	excellent activity
COc1ccc2ncc(=O)n(CCN[C@@H]3CC[C@@H]4[C@@H](C3)OC(=O)N4c3ccc4c(n3)NC(=O)CO4)c2c1 [Compound 21, 1-(2-{[(3aR,6R,7aR)-2-oxo-3-{3-oxo-2H,3H,4H-pyrido[3,2-b][1,4]oxazin-6-yl}-octahydro-1,3-benzoxazol-6-yl]amino}ethyl)-7-methoxy-1,2-dihydroquinoxalin-2-one]	excellent activity
O=C1COc2ccc(N3C(=O)O[C@@H]4C[C@@H](NCCn5c(=O)cnc6cc(F)c(F)cc65)CC[C@@H]43)nc2N1 [Compound 22, 1-(2-{[(3aS,6S,7aR)-2-oxo-3-{3-oxo-2H,3H,4H-pyrido[3,2-b][1,4]oxazin-6-yl}-octahydro-1,3-benzoxazol-6-yl]amino}ethyl)-6,7-difluoro-1,2-dihydroquinoxalin-2-one]	excellent activity
O=C1COc2ccc(N3C(=O)O[C@H]4C[C@@H](NCCn5c(=O)cnc6cc(F)c(F)cc65)CC[C@@H]43)nc2N1 [Compound 34, 1-(2-{[(3aS,6S,7aS)-2-oxo-3-{3-oxo-2H,3H,4H-pyrido[3,2-b][1,4]oxazin-6-yl}-octahydro-1,3-benzoxazol-6-yl]amino}ethyl)-6,7-difluoro-1,2-dihydroquinoxalin-2-one]	excellent activity
N#Cc1cnc2ccc(=O)n(CCN[C@H]3CC[C@H]4[C@H](C3)OC(=O)N4c3ccc4c(n3)NC(=O)CO4)c2c1 [Compound 55, 5-(2-{[(3aS,6S,7aS)-2-oxo-3-{3-oxo-2H,3H,4H-pyrido[3,2-b][1,4]oxazin-6-yl}-octahydro-1,3-benzoxazol-6-yl]amino}ethyl)-6-oxo-5,6-dihydro-1,5-naphthyridine-3-carbonitrile]	excellent activity
N#Cc1ccc2ccc(=O)n(CCN[C@H]3CC[C@H]4[C@H](C3)OC(=O)N4c3ccc4c(n3)NC(=O)CO4)c2c1 [Compound 56, 1-(2-{[(3aS,6S,7aS)-2-oxo-3-{3-oxo-2H,3H,4H-pyrido[3,2-b][1,4]oxazin-6-yl}-octahydro-1,3-benzoxazol-6-yl]amino}ethyl)-2-oxo-1,2-dihydroquinoline-7-carbonitrile]	excellent activity
N#Cc1ccc2ncc(=O)n(CCN[C@@H]3CC[C@@H]4[C@@H](C3)OC(=O)N4c3ccc4c(n3)NC(=O)CO4)c2c1 [Compound 68, 4-(2-{[(3aR,6R,7aR)-2-oxo-3-{3-oxo-2H,3H,4H-pyrido[3,2-b][1,4]oxazin-6-yl}-octahydro-1,3-benzoxazol-6-yl]amino}ethyl)-3-oxo-3,4-dihydroquinoxaline-6-carbonitrile]	excellent activity
COc1cnc2ccc(=O)n(CCN[C@@H]3CC[C@@H]4[C@@H](C3)OC(=O)N4c3ccc4c(n3)NC(=O)CO4)c2c1 [Compound 69, 1-(2-{[(3aR,6R,7aR)-2-oxo-3-{3-oxo-2H,3H,4H-pyrido[3,2-b][1,4]oxazin-6-yl}-octahydro-1,3-benzoxazol-6-yl]amino}ethyl)-7-methoxy-1,2-dihydro-1,5-naphthyridin-2-one]	excellent activity
N#Cc1cnc2ccc(=O)n(CCN[C@H]3CC[C@H]4[C@H](C3)OC(=O)N4c3ccc4c(n3)NC(=O)CS4)c2c1 [Compound 77, 5-(2-{[(3aS,6S,7aS)-2-oxo-3-{3-oxo-2H,3H,4H-pyrido[3,2-b][1,4]thiazin-6-yl}-octahydro-1,3-benzoxazol-6-yl]amino}ethyl)-6-oxo-5,6-dihydro-1,5-naphthyridine-3-carbonitrile]	excellent activity
COc1cccc(-c2cccc(CN[C@@H]3CC[C@@H]4[C@@H](C3)OC(=O)N4c3ccc4c(n3)NC(=O)CO4)c2)n1 [Compound 80, (3aR,6R,7aR)-6-({[3-(6-methoxypyridin-2-yl)phenyl]methyl}amino)-3-{3-oxo-2H,3H,4H-pyrido[3,2-b][1,4]oxazin-6-yl}-octahydro-1,3-benzoxazol-2-one]	excellent activity
COc1cnc2ccc(=O)n(CCN[C@H]3CC[C@H]4[C@H](C3)OC(=O)N4c3ccc4c(n3)NC(=O)CS4)c2c1 [Compound 81, 1-(2-{[(3aS,6S,7aS)-2-oxo-3-{3-oxo-2H,3H,4H-pyrido[3,2-b][1,4]thiazin-6-yl}-octahydro-1,3-benzoxazol-6-yl]amino}ethyl)-7-methoxy-1,2-dihydro-1,5-naphthyridin-2-one]	excellent activity
COc1ccc2ccc(=O)n(CCCN[C@H]3CC[C@H]4[C@H](C3)OC(=O)N4c3ccc4c(n3)NC(=O)CS4)c2n1 [Compound 85, 1-(3-{[(3aS,6S,7aS)-2-oxo-3-{3-oxo-2H,3H,4H-pyrido[3,2-b][1,4]thiazin-6-yl}-octahydro-1,3-benzoxazol-6-yl]amino}propyl)-7-methoxy-1,2-dihydro-1,8-naphthyridin-2-one]	excellent activity
O=C1COc2ccc(N3C(=O)O[C@@H]4C[C@H](NCCCn5c(=O)cnc6cc(F)c(F)cc65)CC[C@H]43)nc2N1 [Compound 88, 1-(3-{[(3aR,6R,7aR)-2-oxo-3-{3-oxo-2H,3H,4H-pyrido[3,2-b][1,4]oxazin-6-yl}-octahydro-1,3-benzoxazol-6-yl]amino}propyl)-6,7-difluoro-1,2-dihydroquinoxalin-2-one]	excellent activity
O=C1COc2ccc(N3C(=O)O[C@H]4C[C@@H](NCCCn5c(=O)cnc6cc(F)c(F)cc65)CC[C@@H]43)nc2N1 [Compound 90, 1-(3-{[(3aS,6S,7aS)-2-oxo-3-{3-oxo-2H,3H,4H-pyrido[3,2-b][1,4]oxazin-6-yl}-octahydro-1,3-benzoxazol-6-yl]amino}propyl)-6,7-difluoro-1,2-dihydroquinoxalin-2-one]	excellent activity
O=C1COc2ccc(N3C(=O)O[C@H]4C[C@@H](NCCn5c(=O)ccc6ccc(OC(F)F)cc65)CC[C@@H]43)nc2N1 [Compound 101, 1-(2-{[(3aS,6S,7aS)-2-oxo-3-{3-oxo-2H,3H,4H-pyrido[3,2-b][1,4]oxazin-6-yl}-octahydro-1,3-benzoxazol-6-yl]amino}ethyl)-7-(difluoromethoxy)-1,2-dihydro quinolin-2-one]	excellent activity
COc1ccc2ccc(=O)n(CCN[C@H]3CC[C@H]4[C@H](C3)OC(=O)N4c3ccc4c(n3)NC(=O)CO4)c2c1 [Compound 102, 1-(2-{[(3aS,6S,7aS)-2-oxo-3-{3-oxo-2H,3H,4H-pyrido[3,2-b][1,4]oxazin-6-yl}-octahydro-1,3-benzoxazol-6-yl]amino}ethyl)-7-methoxy-1,2-dihydroquinolin-2-one]	excellent activity
N#Cc1cccc(-c2cccc(CN[C@H]3CC[C@H]4[C@H](C3)OC(=O)N4c3ccc4c(n3)NC(=O)CO4)n2)c1 [Compound 105, 3-[6-({[(3aS,6S,7aS)-2-oxo-3-{3-oxo-2H,3H,4H-pyrido[3,2-b][1,4]oxazin-6-yl}-octahydro-1,3-benzoxazol-6-yl]amino}methyl)pyridin-2-yl]benzonitrile]	excellent activity
